US20240252652A1, “PROTEINS HAVING UNNATURAL AMINO ACIDS AND METHODS OF USE” (The Regents of the University of California, priority 2021, published 2024)

Legend:
GST dimer = assay: Cross-linking of GST-103SFY-107X in live mammalian cells; format: cell-based; settings: HEK293T cells, Western blot
Excerpt: (§1) To determine which amino acid residues could react with SFY via proximity-enabled reactivity directly in cells, we coexpressed in E. coli the Z protein and an affibody (Afb) specifically binding it. Based on the crystal structure of Afb-Z complex, we introduced SFY at site 24 of the Z protein and various natural residues at site 7 of the affibody (FIG. 11D), placing the two residues in close proximity upon Afb-Z binding. (Wang et al. J. Am Chem. Soc. 140:4995-4999 (2018)). After expression of Afb(24SFY) and Z(7X) (X=target residue) for 6 h. cells were lysed and analyzed with Western blot under denatured conditions (FIG. 11E). Crosslinking bands corresponding to the adduct of Afb and Z were detected for target residue His. Tyr, and Lys, for both Mm-tRNA^Pyl/MmSFYRS and Ma-tRNA^Pyl/MaSFYRS. We then purified 6×His-tagged Z and Afb proteins from cells and analyzed with SDS-PAGE. Consistently, a protein band corresponding to the cross-linked Z with Afb was clearly observed for Afb-7Lys. Afb-7His, and Afb-7Tyr (FIG. 11E). We further tested if SFY could crosslink with these residues in mammalian cells. […] (Liu et al. J. Am Chem. 141:9458-9462 (2019)). We incorporated SFY at site 103 of GST and mutated residue 107 to various target residues. HEK293T cells expressing these GST mutants were lysed and Western blotted to detect covalent GST dimer formation (FIG. 11G). […]

[1] = tested on: nucleoside monophosphates (AMP, UMP, CMP, GMP); assay: In vitro incubations of NMPs and SFY (MS detection of adducts); format: biochemical; settings: 50 mM SFY, 50 mM NMP, 37° C., 16 hours
Protocol: In addition, to check if SFY could cross-link all four nucleotides, we incubated 50 mM SFY with 50 mM different nucleoside monophosphates (NMPs: AMP, UMP, CMP, or GMP) at 37° C. for 16 hours.
In vitro incubations of NMPs and SFY. 50 mM SFY (HCl salt) and 50 mM NMP was incubated in DI H2O. 50 mM NaOH was added to neutralize the HCl salt. The mixture was incubated at 37° C. for […]. Then the reaction mixture was diluted for 50 times in H2O/acetonitrile (50/50, v/v, with 0.1% trifluoracetic acid) and subjected to mass spectrum analysis using positive mode. Mass spectrum analysis was performed on SCIEX MDS, 3200 Q TRAP system.
The molecular weight (MW) of addict products between SFY and NMP was calculated following this equation: MW (adduct product)=MW (SFY)+MW (NMP)−MW (HF).

Afb-Z complex = assay: Cross-linking of MBP-Z24SFY and Afb4A-7X in live E. coli cells; format: cell-based; settings: 6 h expression, Western blot
Excerpt: as §1

HEK293T cells = assay: Cell viability assay (CellTiter-Blue); format: cell-based, human; settings: 0-1 mM SFY, 24 h or 48 h
Protocol: Error bars represent s.e.m.; n=3 independent tests.
Cell viability assay. 2×10^4 cells/well of HEK293T cells were seeded in a 96-well plate. On the next day, the media were replaced with fresh DMEM media supplemented with 0, 0.0625, 0.125, 0.25, 0.5, or 1 mM of SFY. The SFY-treated and control cells were cultured for an additional 24-48 h at 37° C. and then analyzed with CellTiter-Blue R Cell Viability Assay following the manufacturer's instructions.

COc1ccc(C[C@H](N)C(=O)O)cc1S(=O)(=O)F [SFY, (S)-1-carboxy-2-(3-(fluorosulfonyl)-4-methoxyphenyl)ethan-1-aminium]
target residues reacting (covalent GST dimer) (GST dimer): react with His. Tyr, and Lys
cross-linking adducts with NMPs [1]: adducts of SFY with all four NMPs were detected
target residues giving crosslinking bands (adduct of Afb and Z) (Afb-Z complex): detected for target residue His. Tyr, and Lys
toxicity to HEK293T cells (HEK293T cells): did not observe obvious toxicity
